The results in this text go back to patent US12187746B2, “C26-linked rapamycin analogs as mTOR inhibitors” (Revolution Medicines, Inc., priority 2018, dated 2025).

Structures are written as SMILES.

Assay [1] concerns P-Akt (S473). The experiment in a line: Cell based AlphaLISA assay, inhibition of P-Akt (S473) in MDA-MB-468 cells. As to conditions: Homo sapiens, 4 h, 0.017-1,000 nM, two to four hours at 37° C., AlphaLisa SureFire Ultra, read-out: pIC50 for Inhibition of mTORC1 and mTORC2 Substrate Phosphorylation, p-AKT1/2/3-(S473) (converted). The method, then:
(§1) Cell Based AlphaLISA Assays For Determining IC50 For Inhibition of P-Akt (S473), P-4E-BP1 (T37/46), and P-P70S6K (T389) in MDA-MB-468 Cells
(§2) mTOR Kinase Cellular Assay
(§3) To measure functional activity of mTORC1 and mTORC2 in cells the phosphorylation of 4EBP1 (Thr37/46) and P70S6K (Thr389), and AKT1/2/3 (Ser473) was monitored using AlphaLisa SureFire Ultra Kits (Perkin Elmer). […] Incubations are terminated by removal of the assay buffer and addition of lysis buffer provided with the assay kit. Samples are processed according to the manufacturer's instructions. The Alpha signal from the respective phosphoproteins is measured in duplicate using a microplate reader (Envision, Perkin-Elmer or Spectramax M5, Molecular Devices). Inhibitor concentration response curves are analyzed using normalized IC50 regression curve fitting with control based normalization.

Assay [2] deals with P-P70S6K (T389). The assay can be described thus: Cell based AlphaLISA assay, inhibition of P-P70S6K (T389) in MDA-MB-468 cells. The note with it: Homo sapiens, 4 h, 0.017-1,000 nM, two to four hours at 37° C., AlphaLisa SureFire Ultra, read-out: pIC50 for Inhibition of mTORC1 and mTORC2 Substrate Phosphorylation, p-P70S6K-(T389) (converted). The method, then:
as §1, §2, §3

For assay [3], the system named is P-4E-BP1 (T37/46). The assay can be described thus: Cell based AlphaLISA assay, inhibition of P-4E-BP1 (T37/46) in MDA-MB-468 cells. As to conditions: Homo sapiens, 4 h, 0.017-1,000 nM, two to four hours at 37° C., AlphaLisa SureFire Ultra, read-out: pIC50 for Inhibition of mTORC1 and mTORC2 Substrate Phosphorylation, p-4E-BP1-(T37/46) (converted). The procedure:
as §1, §2, §3

In the case of `CO[C@H]1C[C@@H]2CC[C@@H](C)[C@@](O)(O2)C(=O)C(=O)N2CCCC[C@H]2C(=O)O[C@H]([C@H](C)C[C@@H]2CC[C@@H](O)[C@H](OC)C2)C[C@@H](O)[C@H](C)/C=C(\C)[C@@H](O)[C@@H](OC)C(=NOCC(=O)N2CCc3nc(N4CCN(c5ncc(C(=O)NCCOCCC(=O)N6CCc7cc(Cn8nc(-c9ccc%10oc(N)nc%10c9)c9c(N)ncnc98)ccc7C6)cn5)CC4)ncc3C2)[C@H](C)CC(C)/C=C/C=C/C=C/1C` (stereo partly drawn) [Example 18], the results for the IC50 in assay [1], in assay [2] and in assay [3] were over 1000 nM, 1 to 10 nM and 3.16 to 31.6 nM, respectively.

Turning to `CO[C@H]1C[C@@H]2CC[C@@H](C)[C@@](O)(O2)C(=O)C(=O)N2CCCC[C@H]2C(=O)O[C@H]([C@H](C)C[C@@H]2CC[C@@H](O)[C@H](OC)C2)C[C@@H](O)[C@H](C)/C=C(\C)[C@@H](O)[C@@H](OC)C(=NOCC(=O)N2CCc3nc(N4CCN(c5ncc(C(=O)NCCOCCOCCOCCC(=O)N6CCc7cc(Cn8nc(-c9cnc%10[nH]ccc%10c9)c9c(N)ncnc98)ccc7C6)cn5)CC4)ncc3C2)[C@H](C)C[C@H](C)/C=C/C=C/C=C/1C` [Example 19], the IC50 in assay [1] is over 1000 nM; in assay [2], 1 to 10 nM; in assay [3], 3.16 to 31.6 nM.

For `CO[C@H]1C[C@@H]2CC[C@@H](C)[C@@](O)(O2)C(=O)C(=O)N2CCCC[C@H]2C(=O)O[C@H]([C@H](C)C[C@@H]2CC[C@@H](O)[C@H](OC)C2)C[C@@H](O)[C@H](C)/C=C(\C)[C@@H](O)[C@@H](OC)C(=NOCC(=O)NCc2cnc(N3CCN(c4ncc(C(=O)NCCOCCOCCOCCC(=O)NCCCCn5nc(-c6ccc7oc(N)nc7c6)c6c(N)ncnc65)cn4)CC3)nc2)[C@H](C)C[C@H](C)/C=C/C=C/C=C/1C` [Example 20], the IC50 in assay [1] is over 1000 nM; in assay [2], 1 to 10 nM; in assay [3] it was 3.16 to 31.6 nM.

Consider `CO[C@H]1C[C@@H]2CC[C@@H](C)[C@@](O)(O2)C(=O)C(=O)N2CCCC[C@H]2C(=O)O[C@H]([C@H](C)C[C@@H]2CC[C@@H](O)[C@H](OC)C2)C[C@@H](O)[C@H](C)/C=C(\C)[C@@H](O)[C@@H](OC)C(=NOCC(=O)NCc2cnc(N3CCN(c4ncc(C(=O)NCCOCCOCCOCCC(=O)N5CCc6cc(Cn7nc(-c8cnc9[nH]ccc9c8)c8c(N)ncnc87)ccc6C5)cn4)CC3)nc2)[C@H](C)C[C@H](C)/C=C/C=C/C=C/1C` [Example 21], for which the IC50 in assay [1] is over 1000 nM; in assay [2], 1 to 10 nM; in assay [3], 3.16 to 31.6 nM.

With `CO[C@H]1C[C@@H]2CC[C@@H](C)[C@@](O)(O2)C(=O)C(=O)N2CCCC[C@H]2C(=O)O[C@H]([C@H](C)C[C@@H]2CC[C@@H](O)[C@H](OC)C2)C[C@@H](O)[C@H](C)/C=C(\C)[C@@H](O)[C@@H](OC)C(=NOCC(=O)NCc2cnc(N3CCN(C(=O)CN(C)CC(=O)NCCOCCOCCC(=O)NCCCCn4nc(-c5cnc6[nH]ccc6c5)c5c(N)ncnc54)CC3)nc2)[C@H](C)C[C@H](C)/C=C/C=C/C=C/1C` [Example 22], the values for the IC50 in assay [1], in assay [2] and in assay [3] were over 1000 nM, 1 to 10 nM and 31.6 to 1000 nM, respectively.

In the case of `CO[C@H]1C[C@@H]2CC[C@@H](C)[C@@](O)(O2)C(=O)C(=O)N2CCCC[C@H]2C(=O)O[C@H]([C@H](C)C[C@@H]2CC[C@@H](O)[C@H](OC)C2)C[C@@H](O)[C@H](C)/C=C(\C)[C@@H](O)[C@@H](OC)C(=NOCC(=O)N2CCc3nc(N4CCN(C(=O)CCOCCOCCOCCOCCC(=O)NCCCCn5nc(-c6ccc7oc(N)nc7c6)c6c(N)ncnc65)CC4)ncc3C2)[C@H](C)C[C@H](C)/C=C/C=C/C=C/1C` [Example 23], the results for the IC50 in assay [1], in assay [2] and in assay [3] were 31.6 to 1000 nM, 1 to 10 nM and 3.16 to 31.6 nM, respectively.

`CO[C@H]1C[C@@H]2CC[C@@H](C)[C@@](O)(O2)C(=O)C(=O)N2CCCC[C@H]2C(=O)O[C@H]([C@H](C)C[C@@H]2CC[C@@H](O)[C@H](OC)C2)C[C@@H](O)[C@H](C)/C=C(\C)[C@@H](O)[C@@H](OC)C(=NOCC(=O)NCc2cnc(N3CCN(C(=O)CN(C)CC(=O)NCCOCCOCCC(=O)NCCCCn4nc(-c5ccc6oc(N)nc6c5)c5c(N)ncnc54)CC3)nc2)[C@H](C)C[C@H](C)/C=C/C=C/C=C/1C` [Example 24]: the IC50 was 31.6 to 1000 nM in assay [1], 1 to 10 nM in assay [2] and 31.6 to 1000 nM in assay [3].

Consider `CO[C@H]1C[C@@H]2CC[C@@H](C)[C@@](O)(O2)C(=O)C(=O)N2CCCC[C@H]2C(=O)O[C@H]([C@H](C)C[C@@H]2CC[C@@H](O)[C@H](OC)C2)C[C@@H](O)[C@H](C)/C=C(\C)[C@@H](O)[C@@H](OC)C(=NOCC(=O)NCc2cnc(N3CCN(C(=O)CN(C)CC(=O)NCCOCCOCCC(=O)N4CCc5cc(Cn6nc(-c7ccc8oc(N)nc8c7)c7c(N)ncnc76)ccc5C4)CC3)nc2)[C@H](C)C[C@H](C)/C=C/C=C/C=C/1C` [Example 25], for which the figures for the IC50 in assay [1], in assay [2] and in assay [3] were over 1000 nM, 1 to 10 nM and 31.6 to 1000 nM, respectively.

Consider `CO[C@H]1C[C@@H]2CC[C@@H](C)[C@@](O)(O2)C(=O)C(=O)N2CCCC[C@H]2C(=O)O[C@H]([C@H](C)C[C@@H]2CC[C@@H](O)[C@H](OC)C2)C[C@@H](O)[C@H](C)/C=C(\C)[C@@H](O)[C@@H](OC)C(=NOCC(=O)NCCOCCC(=O)N2CCc3nc(N4CCN(c5ncc(C(=O)N6CCc7cc(Cn8nc(-c9ccc%10oc(N)nc%10c9)c9c(N)ncnc98)ccc7C6)cn5)CC4)ncc3C2)[C@H](C)C[C@H](C)/C=C/C=C/C=C/1C` [Example 26], for which the IC50 was over 1000 nM in assay [1], 1 to 10 nM in assay [2] and 3.16 to 31.6 nM in assay [3].

Turning to `CO[C@H]1C[C@@H]2CC[C@@H](C)[C@@](O)(O2)C(=O)C(=O)N2CCCC[C@H]2C(=O)O[C@H]([C@H](C)C[C@@H]2CC[C@@H](O)[C@H](OC)C2)C[C@@H](O)[C@H](C)/C=C(\C)[C@@H](O)[C@@H](OC)C(=NOCC(=O)NCCOCCOCCOCCOCCC(=O)N2CCN(c3ncc(C(=O)NCCCCn4nc(-c5ccc6oc(N)nc6c5)c5c(N)ncnc54)cn3)CC2)[C@H](C)C[C@H](C)/C=C/C=C/C=C/1C` [Example 27], the IC50 in assay [1] was 31.6 to 1000 nM; in assay [2], 1 to 10 nM; in assay [3], 3.16 to 31.6 nM.

Consider `CO[C@H]1C[C@@H]2CC[C@@H](C)[C@@](O)(O2)C(=O)C(=O)N2CCCC[C@H]2C(=O)O[C@H]([C@H](C)C[C@@H]2CC[C@@H](O)[C@H](OC)C2)C[C@@H](O)[C@H](C)/C=C(\C)[C@@H](O)[C@@H](OC)C(=NOCC(=O)NCCOCCOCCOCCOCCOCCOCCC(=O)N2CCC(N3CCC(C(=O)N4CCc5cc(Cn6nc(-c7ccc8oc(N)nc8c7)c7c(N)ncnc76)ccc5C4)CC3)CC2)[C@H](C)C[C@H](C)/C=C/C=C/C=C/1C` [Example 28], for which the values for the IC50 in assay [1], in assay [2] and in assay [3] were 31.6 to 1000 nM, 1 to 10 nM and 3.16 to 31.6 nM, respectively.

Regarding `CO[C@H]1C[C@@H]2CC[C@@H](C)[C@@](O)(O2)C(=O)C(=O)N2CCCC[C@H]2C(=O)O[C@H]([C@H](C)C[C@@H]2CC[C@@H](O)[C@H](OC)C2)C[C@@H](O)[C@H](C)/C=C(\C)[C@@H](O)[C@@H](OC)C(=NOCC(=O)NCc2cnc(N3CCN(C(=O)CCOCCN4CCN(c5ncc(C(=O)NCCCCn6nc(-c7ccc8oc(N)nc8c7)c7c(N)ncnc76)cn5)CC4)CC3)nc2)[C@H](C)C[C@H](C)/C=C/C=C/C=C/1C` [Example 29], the IC50 was 31.6 to 1000 nM in assay [1], 1 to 10 nM in assay [2] and 3.16 to 31.6 nM in assay [3].

Turning to `CO[C@H]1C[C@@H]2CC[C@@H](C)[C@@](O)(O2)C(=O)C(=O)N2CCCC[C@H]2C(=O)O[C@H]([C@H](C)C[C@@H]2CC[C@@H](O)[C@H](OC)C2)C[C@@H](O)[C@H](C)/C=C(\C)[C@@H](O)[C@@H](OC)C(=NOCC(=O)NCc2cnc(N3CCN(C(=O)CCOCCN4CCN(c5ncc(C(=O)N6CCc7cc(Cn8nc(-c9ccc%10oc(N)nc%10c9)c9c(N)ncnc98)ccc7C6)cn5)CC4)CC3)nc2)[C@H](C)C[C@H](C)/C=C/C=C/C=C/1C` [Example 30], the IC50 in assay [1] was over 1000 nM; in assay [2] it was under 1 nM; in assay [3], 3.16 to 31.6 nM.

For the molecule `CO[C@H]1C[C@@H]2CC[C@@H](C)[C@@](O)(O2)C(=O)C(=O)N2CCCC[C@H]2C(=O)O[C@H]([C@H](C)C[C@@H]2CC[C@@H](O)[C@H](OC)C2)C[C@@H](O)[C@H](C)/C=C(\C)[C@@H](O)[C@@H](OC)C(=NOCC(=O)NCc2cnc(N3CCN(C(=O)CCOCCN4CCN(c5ncc(C(=O)N6CCc7cc(Cn8nc(-c9cnc%10[nH]ccc%10c9)c9c(N)ncnc98)ccc7C6)cn5)CC4)CC3)nc2)[C@H](C)C[C@H](C)/C=C/C=C/C=C/1C` [Example 31], the IC50 in assay [1] was over 1000 nM; in assay [2], under 1 nM; in assay [3] it was 3.16 to 31.6 nM.
